Source: ChEMBL document CHEMBL4665849, “Synthesis and biological evaluation of imidazoline derivatives as potential CNS and CVS agents” (Bioorg Med Chem Lett, 2020)
Activity calls are given as the source filed them. The rule behind the calls is not given here.

How the values were obtained:
[1] = Toxicity in mouse; type: organism-based; settings: in vivo, read-out: ALD50
Mus musculus [2] = assay: Hypotensive activity in mouse assessed as decrease in delayed blood pressure at 2.5 mg/kg; type: functional
Mus musculus [3] = assay: Analgesic activity in mouse assessed as maximum change in tail flick latency time at 10 mg/kg (reference value: 0.7 secs); type: functional
Mus musculus [4] = assay: Hypotensive activity in mouse assessed as decrease in heart rate at 2.5 mg/kg; type: functional
Mus musculus [5] = assay: Modulation of cardiovascular activity in mouse assessed as inhibition of carotid occlusion-induced pressure response at 2.5 mg/kg; type: functional, organism-based
Mus musculus [6] = assay: Analgesic activity in mouse assessed as time duration at which maximum change in tail flick latency occurs at 10 mg/kg (reference value: 60 mins); type: functional
Mus musculus [7] = assay: Modulation of cardiovascular activity in mouse assessed as inhibition of norepinephrine induced pressure response at 2.5 mg/kg; type: functional, organism-based
Mus musculus [8] = assay: Hypotensive activity in mouse assessed as decrease in immediate blood pressure at 2.5 mg/kg; type: functional
Mus musculus [9] = assay: Antiaggressive activity in mouse assessed as reduction in foot shock induced fighting behavior by measuring fighting count at 10 mg/kg, ip (reference value: 6.6 to 24.3 counts); type: functional
Mus musculus [10] = assay: Antidepressant activity in mouse assessed as total mean swimming time time at 5 mg/kg, ip (reference value: 2.08 to 3.12 min); type: functional
Mus musculus [11] = assay: Modulation of cardiovascular activity in mouse assessed as potentiation of norepinephrine induced pressure response at 2.5 mg/kg; type: functional, organism-based
Mus musculus [12] = assay: Antidepressant activity in mouse assessed as total mean swimming time at 15 mg/kg (reference value: 2.98 min); type: functional

SMILES | LD50 [1] [mg/kg] | Activity (Mus musculus [2]) [mmHg] | Time (Mus musculus [3]) [s] | Activity (Mus musculus [4]) [bpm] | inhibition (Mus musculus [5]) | Time (Mus musculus [6]) [min] | inhibition (Mus musculus [7]) | Activity (Mus musculus [8]) [mmHg] | Activity (Mus musculus [9]) [Counts] | Time (Mus musculus [10]) [min] | Activity (Mus musculus [11]) | Time (Mus musculus [12]) [min]
O=C1/C(=C/c2ccccc2)N=C(CCN2CCOCC2)N1c1ccc(O)cc1 | > 500 | 15 | 4 | 15 | Active | 60 | inactive | 35 | 21.6 | 0.84 | inactive | –
CN(C)CCCN1c2ccccc2CCc2ccccc21 [IMIPRAMINE] | – | – | – | – | – | – | – | – | – | – | – | 2.33
CC1=N/C(=C\c2ccoc2)C(=O)N1c1ccc(OCC(O)CNc2ccc(Cl)cc2)cc1 (stereo not drawn) | > 500 | 20 | 6.9 | 27 | inactive | 30 | inactive | 25 | 10.6 | 2.83 | inactive | –
CC1=N/C(=C\c2ccoc2)C(=O)N1c1ccc(OCC2CO2)cc1 (stereo not drawn) | > 1000 | 20 | 6.4 | 6 | Active | 60 | – | 30 | 5 | 1.14 | Active | –
CC1=N/C(=C\c2ccccc2)C(=O)O1 | > 500 | 40 | 1.3 | 36 | Active | 60 | – | 25 | 6 | 1.72 | Active | –
O=C1/C(=C/c2ccoc2)N=C(CCN2CCOCC2)N1c1ccc(O)cc1 | > 1000 | 20 | 5.2 | 18 | Active | 30 | – | 35 | 6.6 | 1.3 | Active | –
CC1=N/C(=C\c2ccc(N(C)C)cc2)C(=O)N1c1ccc(O)cc1 | > 500 | 50 | 0.1 | 27 | Active | 30 | – | 25 | 1.6 | 0.42 | Active | –
CC1=N/C(=C\c2ccc(N(C)C)cc2)C(=O)N1c1ccc(OCC2CO2)cc1 (stereo not drawn) | > 500 | 28 | 3.8 | 24 | Active | 30 | Active | 60 | 10.3 | 1.31 | – | –
